Molecular target: T1, 5α-reductase (Homo sapiens, UniProt P31213)
T1 construct: Homogenates of human prostates obtained by radical prostatectomies; from tissue; host or cells: human prostate from radical prostatectomy for benign hyperplasia; resuspended 140,000 g pellet of the homogenate
T1 sequence (P31213 1-254): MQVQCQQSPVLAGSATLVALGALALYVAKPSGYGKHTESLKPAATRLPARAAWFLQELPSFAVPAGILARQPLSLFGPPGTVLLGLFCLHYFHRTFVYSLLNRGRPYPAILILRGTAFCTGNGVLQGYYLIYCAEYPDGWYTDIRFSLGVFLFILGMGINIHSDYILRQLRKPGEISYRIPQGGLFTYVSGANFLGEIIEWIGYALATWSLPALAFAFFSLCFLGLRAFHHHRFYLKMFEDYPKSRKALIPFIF
Test: 5α-reductase activity test in vitro, human prostate homogenate, testosterone substrate, HPLC measurement of 5α-reduced metabolites
Type: biochemical
Details: homogenates of human prostates (BHP), pH 5.5, 37° C., 30 minutes, read-out: IC50 for inhibition of the 5α-reductase activity of the control
Protocol: The test for measuring the 5α-reductase activity was carried cut in vitro by incubating the enzyme and its substrate (testosterone) and by measuring by HPLC chromatography the amount of 5α-reduced metabolites formed (dihydrotestosterone (DHT) and 5α-androstane-diol). Homogenates of human prostates obtained by radical prostatectomies due to benign hyperplasia of the prostate (BHP) were used.
The prostate was collected straight after leaving the operating theater suite and packed in aluminum paper placed in a container filled with dry ice. At the laboratory, if the homogenate was not prepared immediately, the prostate could be stored at -80° C. […]
b) Mixture of "unlabelled" testosterone and "tritiated testosterone" with an isotopic dilution of 100: To obtain a 1 mM solution of testosterone, 2.88 mg of "unlabelled" testosterone were weighed out which was dissolved in 10 ml of ethanol. […] Substrate (S) was ready. […]
The amounts of metabolites produced during the incubation were measured by separating the compounds formed by reversed-phase high performance liquid chromatography (HPLC). […] The extract collected after extraction was injected automatically onto the HPLC system and by the linear radioactivity measurement system (Berthold), only the radioactive metabolites, formed from the testosterone labelled with the substrate, were evaluated. […]

IC50: 22 µM
Substance: oenotheine B
